{"source": "paper PMC10459838", "about": "(Veterinary Sciences, 2023)", "key": {"[1]": {"test_system": "FIPV serotype II strain (WSU-79-1146)", "assay": "Antiviral efficacy against FIPV replication in CRFK cells, viral load by qRT-PCR", "assay_type": "cell-based, feline infectious peritonitis virus", "conditions": "for Viral load (FIPV RNA copies) / FIPV viral copies with GS441524: GS441524 25 µM; for Viral load (FIPV RNA copies): inoculum […] 10^4 TCID50/mL; for Selectivity index (SI) = (mean CC50)/(mean EC50): against FIPV in CRFK cells"}, "CRFK cells [2]": {"test_system": "CRFK cells", "assay": "Cell viability assay (MTT, Cell Proliferation Kit I)", "assay_type": "cell-based, feline", "protocol": "(§1) The Crandell-Reese feline kidney (CRFK) cells utilized in this study were purchased from American Type Culture Collection (ATCC, Manassas, VA, USA), and cultured in Eagle’s Minimum Essential Medium (EMEM) medium supplemented with 10% fetal bovine serum (FBS), 1% antibiotics (penicillin and streptomycin), and 1% non-essential amino acids. The reagents were obtained from ATCC. The CRFK cells were incubated at 37 °C with 5% CO2.\n(§2) The cell viability of CRFK cells was measured using a Cell Proliferation Kit I (MTT) (Roche Applied Science, Indianapolis, IN, USA), following the manufacturer’s instructions. […] After incubation for 48 h, 10 μL of MTT solution (0.5 mg/mL in phosphate-buffered saline) was added to each well. The plate was incubated for 4 h at 37 °C to allow the formation of formazan crystals. Following incubation, 1% sodium dodecyl sulfate (100 μL) solution was added to dissolve the crystals."}, "[3]": {"assay": "Cell viability assay (MTT, Cell Proliferation Kit I)", "assay_type": "cell-based, feline", "conditions": "cat", "protocol": "as §1, §2"}, "CRFK cells [4]": {"test_system": "CRFK cells", "conditions": "48 h"}, "COVID-19": {"test_system": "COVID-19", "design": "method as in PMID 34933447", "conditions": "co-administered with ritonavir within 3 to 5 days of COVID-19 symptom onset; cited from earlier work"}, "FIPV": {"test_system": "FIPV", "design": "method as in earlier work", "conditions": "ref 39 (Jiao, Yan et al.); cited from earlier work"}, "[5]": {"conditions": "Alphacoronavirus 1, CRFK, 48 h, CRFK cells, FIPV […] 10^4 TCID50/mL, 48 h, qRT-PCR, read-out: 50% effective concentration (EC50) against FIPV replication"}, "[6]": {"conditions": "CRFK cells, FIPV […] 10^4 TCID50/mL, 48 h, qRT-PCR, read-out: 50% effective concentration (EC50) against FIPV replication"}, "[7]": {"conditions": "CRFK cells treated with drugs for 48 h, MTT assay (Figure 5), read-out: 50% cytotoxic concentration (CC50)"}, "[8]": {"conditions": "CRFK cells (Crandell-Reese feline kidney), CRFK cells treated with drugs for 48 h, MTT assay (Figure 5), read-out: 50% cytotoxic concentration (CC50)"}}, "note": "Like-named read-outs stand apart in the source and are kept apart here.", "data": [{"smiles": "N#C[C@@]1(c2ccc3c(N)ncnn23)O[C@H](CO)[C@@H](O)[C@H]1O", "note": "[GS441524, GS-441524]", "values": [{"measurement": "Cytopathic effects (CPEs) in FIPV-infected cells", "setting": "[1]; 0.5 µM, 10-fold dilutions", "result": "no CPEs observed in cells"}, {"measurement": "Reduction in FIPV copy number", "setting": "[1]; 0.98 µM, two-fold dilutions, 48 hpi", "result": 22.5, "unit": "%"}, {"measurement": "Lowest concentration with anti-FIPV efficacy compared to no-drug group", "setting": "[1]; 10-fold dilutions, 48 hpi", "result": 0.5, "unit": "µM"}, {"measurement": "EC50", "setting": "[1]; [5]", "result": 1.57, "unit": "µM"}, {"measurement": "inhibition at 0.5 µM", "setting": "[1]; Alphacoronavirus 1, CRFK, 0.5 µM, 10-fold dilutions, 48 hpi", "result": 85, "unit": "%"}, {"measurement": "inhibition at […]", "setting": "[1]; Alphacoronavirus 1, CRFK, 7.8 µM, two-fold dilutions, 48 hpi", "result": 98.3, "unit": "%"}, {"measurement": "EC50", "setting": "[1]; [6]", "result": 1.6, "unit": "µM"}, {"measurement": "Viral load (FIPV RNA copies)", "setting": "[1]; 0 hpi (applied at inoculation, remained), 24 h", "result": "2.58 × 10^4 per ml"}, {"measurement": "Viral load (FIPV RNA copies)", "setting": "[1]; 0 hpi, 48 h", "result": "1.97 × 10^4 per ml"}, {"measurement": "Viral load (FIPV RNA copies)", "setting": "[1]; 0 hpi, 72 h", "result": "2.04 × 10^4 per ml"}, {"measurement": "Viral load (FIPV RNA copies)", "setting": "[1]; +1 hpi (applied 1 h post inoculation), 24 h", "result": "2.84 × 10^4 per ml"}, {"measurement": "Viral load (FIPV RNA copies)", "setting": "[1]; +1 hpi, 48 h", "result": "1.52 × 10^4 per ml"}, {"measurement": "Viral load (FIPV RNA copies)", "setting": "[1]; +1 hpi, 72 h", "result": "1.39 × 10^4 per ml"}, {"measurement": "FIPV viral copies with GS441524", "setting": "[1]; FIPV inoculum […] 10^2 TCID50/mL, 48 h", "result": "4.60 × 10^1 per ml"}, {"measurement": "FIPV viral copies with GS441524", "setting": "[1]; FIPV inoculum […] 10^2 TCID50/mL, 72 h", "result": "2.36 × 10^1 per ml"}, {"measurement": "FIPV viral copies with GS441524", "setting": "[1]; FIPV inoculum […] 10^3 TCID50/mL, 48 h", "result": "3.48 × 10^2 per ml"}, {"measurement": "FIPV viral copies with GS441524", "setting": "[1]; FIPV inoculum […] 10^3 TCID50/mL, 72 h", "result": "2.09 × 10^2 per ml"}, {"measurement": "FIPV viral copies with GS441524", "setting": "[1]; FIPV inoculum […] 10^4 TCID50/mL, 48 h", "result": "2.76 × 10^3 per ml"}, {"measurement": "FIPV viral copies with GS441524", "setting": "[1]; FIPV inoculum […] 10^4 TCID50/mL, 72 h", "result": "3.24 × 10^3 per ml"}, {"measurement": "Viral load (FIPV RNA copies)", "setting": "[1]; −2 & +1 hpi (applied 2 h before, removed, applied again at 1 hpi), 24 h", "result": "2.47 × 10^4 per ml"}, {"measurement": "Viral load (FIPV RNA copies)", "setting": "[1]; −2 hpi (applied 2 h before inoculation, removed before inoculation), 24 h", "result": "1.97 × 10^4 per ml"}, {"measurement": "Viral load (FIPV RNA copies)", "setting": "[1]; −2 hpi, 48 h", "result": "2.94 × 10^5 per ml"}, {"measurement": "Viral load (FIPV RNA copies)", "setting": "[1]; −2 hpi, 72 h", "result": "6.89 × 10^6 per ml"}, {"measurement": "Lowest concentration with antiviral efficacy", "setting": "[1]; two-fold dilutions, 48 hpi", "result": 0.98, "unit": "µM"}, {"measurement": "CC50", "setting": "CRFK cells [2]; [7]", "result": 260, "unit": "µM"}, {"measurement": "CC50 at 48 h", "setting": "[3]; [7]", "result": 260, "unit": "µM"}]}, {"smiles": "CC(C)C(=O)OC[C@H]1O[C@@H](n2ccc(NO)nc2=O)[C@H](O)[C@@H]1O", "note": "[Molnupiravir]", "values": [{"measurement": "EC50", "setting": "[1]; [5]", "result": 8, "unit": "µM"}, {"measurement": "EC50", "setting": "[1]; [6]", "result": 8.04, "unit": "µM"}, {"measurement": "Selectivity index (SI) = (mean CC50)/(mean EC50)", "setting": "[1]", "result": 29.3}, {"measurement": "Selectivity index (SI) = (mean CC50)/(mean EC50)", "setting": "[1]; listed as molnupiravir", "result": 29.27}, {"measurement": "Highest concentration with essentially no cytotoxicity", "setting": "CRFK cells [4]; CRFK cells, CellTox Green", "result": 63, "unit": "µM"}, {"measurement": "CC50", "setting": "CRFK cells [2]; [7]", "result": 235, "unit": "µM"}, {"measurement": "Concentration as high as which the drug could be used safely with minimal cytotoxicity", "setting": "CRFK cells [2]; CRFK cells, 48 h, MTT staining", "result": 63, "unit": "µM"}, {"measurement": "CC50 at 48 h", "setting": "[3]; [8]", "result": 235, "unit": "µM"}]}, {"smiles": "CC(C)(C)[C@H](NC(=O)C(F)(F)F)C(=O)N1C[C@H]2[C@@H]([C@H]1C(=O)N[C@H](C#N)C[C@@H]1CCNC1=O)C2(C)C", "note": "[Nirmatrelvir]", "values": [{"measurement": "Reduction in hospitalizations and death", "setting": "COVID-19", "result": 89, "unit": "%"}, {"measurement": "Cytopathic effects (CPEs) in FIPV-infected cells", "setting": "[1]; 5 µM, 10-fold dilutions", "result": "no CPEs in cells"}, {"measurement": "EC50", "setting": "[1]; Alphacoronavirus 1, CRFK, 48 h, read-out: 50% effective concentration (EC50) against FIPV replication, CRFK cells, FIPV […] 10^4 TCID50/mL, 48 h, qRT-PCR", "result": 2.46, "unit": "µM"}, {"measurement": "inhibition at 5 µM", "setting": "[1]; Alphacoronavirus 1, CRFK, read-out: Inhibition of FIPV replication", "result": 80, "unit": "%"}, {"measurement": "Selectivity index (SI) = (mean CC50)/(mean EC50)", "setting": "[1]", "result": 113.7}, {"measurement": "Selectivity index (SI) = (mean CC50)/(mean EC50)", "setting": "[1]; listed as nirmatrelvir", "result": 113.67}, {"measurement": "EC50", "setting": "[1]; read-out: 50% effective concentration (EC50) against FIPV replication, CRFK cells, FIPV […] 10^4 TCID50/mL, 48 h, qRT-PCR", "result": 2.5, "unit": "µM"}, {"measurement": "Highest concentration with essentially no cytotoxicity", "setting": "CRFK cells [4]; CRFK cells, CellTox Green", "result": 63, "unit": "µM"}, {"measurement": "Concentration as high as which the drug could be used safely with minimal cytotoxicity", "setting": "CRFK cells [2]; CRFK cells, 48 h, MTT staining", "result": 63, "unit": "µM"}, {"measurement": "CC50 at 48 h", "setting": "[3]; [7]", "result": 279, "unit": "µM"}, {"measurement": "EC50", "setting": "FIPV", "result": 2.52, "unit": "µM"}]}, {"smiles": "CC(C)c1nc(CN(C)C(=O)N[C@H](C(=O)N[C@@H](Cc2ccccc2)C[C@H](O)[C@H](Cc2ccccc2)NC(=O)OCc2cncs2)C(C)C)cs1", "note": "[Ritonavir]", "values": [{"measurement": "Cytopathic effects (CPEs) in FIPV-infected cells", "setting": "[1]; 5 µM, 10-fold dilutions", "result": "induced CPEs"}, {"measurement": "Cytopathic effects (CPEs) in FIPV-infected cells", "setting": "[1]; 50 µM, 10-fold dilutions", "result": "induced CPEs"}, {"measurement": "EC50", "setting": "[1]; [5]", "result": 17.6, "unit": "µM"}, {"measurement": "Highest concentration with essentially no cytotoxicity", "setting": "CRFK cells [4]; cat", "result": 16, "unit": "µM"}, {"measurement": "Lowest concentration at which cytotoxicity was observed", "setting": "CRFK cells [4]; cat", "result": 31, "unit": "µM"}, {"measurement": "Concentration as high as which the drug could be used safely with minimal cytotoxicity", "setting": "CRFK cells [2]; cat, 48 h", "result": 16, "unit": "µM"}]}, {"smiles": "N#CC[C@H](C1CCCC1)n1cc(-c2ncnc3[nH]ccc23)cn1", "note": "[Ruxolitinib]", "values": [{"measurement": "EC50", "setting": "[1]; Alphacoronavirus 1, CRFK, 48 h, read-out: 50% effective concentration (EC50) against FIPV replication", "result": 43.6, "unit": "µM"}, {"measurement": "Lowest concentration at which cytotoxicity was observed", "setting": "CRFK cells [4]; CRFK cells, cytotoxicity assay", "result": 250, "unit": "µM"}, {"measurement": "CC50", "setting": "CRFK cells [2]; cat, 48 h", "result": 338, "unit": "µM"}, {"measurement": "CC50 at 48 h", "setting": "[3]; 50% cytotoxic concentration (CC50)", "result": 338, "unit": "µM"}]}, {"smiles": "C/C(O)=C(\\C#N)C(=O)Nc1ccc(C(F)(F)F)cc1", "note": "[Teriflunomide]", "values": [{"measurement": "EC50", "setting": "[1]; [5]", "result": 49.6, "unit": "µM"}, {"measurement": "Highest concentration with essentially no cytotoxicity", "setting": "CRFK cells [4]; cat", "result": 63, "unit": "µM"}, {"measurement": "Concentration as high as which the drug could be used safely with minimal cytotoxicity", "setting": "CRFK cells [2]; CRFK cells, 48 h, MTT staining", "result": 62.5, "unit": "µM"}, {"measurement": "CC50 at 48 h", "setting": "[3]; [8]", "result": 134, "unit": "µM"}]}]}
